Reference: patent US9221900B2, “Methods for identifying safe and functional humanized antibodies” (AC IMMUNE S.A., priority 2010, dated 2015)
Entries after “also recorded” stand apart in the source; their conditions may differ.

Key:
Type in all cases: cell-based, rat
[1] = system: mixed cortical cells from P1 rats; test: Aβ1-42 oligomer cytotoxicity assay, MTT readout; details: for reversal of Aβ1-42 oligomer-mediated toxicity: mixed primary cortical cultures, different IgG backbones
Protocol: FIG. 2 provides graphs and immunocytochemical images corresponding to the experiments described in Example 6.3. […] An MTT assay was used to determine cell viability as described in the Methods section. The means (±SEM) of five independent experiments are shown. *P<0.05, **P<0.01. […] Neurotoxicity following extended Aβ1-42 oligomer treatment was tested by morphological analyses (C).
A non-specific IgG monoclonal antibody was used as a control in all experiments.
Rat primary cortical cultures were prepared from Sprague-Dawley rats (Charles River Laboratories L'Arbresle, France) at post-natal day 1, as described by Meberg and Miller (Meberg and Miller, 2003). Cerebellum and meninges were removed, and cortices were cut into small pieces and dissociated with enzymatic disruption at 37° C. in dissociation buffer (papaine, CaCl2, EDTA, and HEPES; all from Invitrogen, Carlsbad, Calif.). DNase (Invitrogen) was added for 10 min. Following dissociation, dispersed cortical neurons were plated onto poly-L-lysine (0.01%; mol. wt 150,000-300,000; Sigma) coated 6-well, 24-well, or 96-well tissue culture plates. For immunocytochemistry, cells were grown on coated glass coverslips, into 24-well plates. Cells were maintained in Neurobasal media (Invitrogen) without phenol-red, with the addition of L-glutamine (2 mM; Sigma), B27 supplement (Invitrogen), and penicillin/streptomycin (Sigma) in a humidified incubator at 37° C. and 5% CO2. Following 1 h and 30 min in culture, the media was replaced with astrocyte-conditioned medium. After a further 4 days in culture, cell proliferation was blocked by treatment with cytosine arabinoside (Ara-C) at 2.5 μM (Invitrogen). Under these culture conditions, 20% of cells were identified as neurons by NeuN/DAPI staining (not shown). Experiments using mixed cortical cultures were generally performed at days-in-vitro (“DIV”) 6 unless stated otherwise. Enriched microglia prepared from cortex and hippocampus were harvested as described for cortical cultures above. Cortex and hippocampus were put in DMEM containing high glucose and homogenized by pipetting with a 10 mL pipette and then with a syringe. The homogenate was centrifuged for 3 min at 1,000×g, and then resuspended in pre-warmed DMEM containing high glucose containing 10% FCS and penicillin/streptomycin (microglia media). The cell suspension was next transferred to a T75 tissue-culture flask and kept in a humidified incubator at 37° C. and 5% CO2 for 1 week. The flask was shaken to separate microglia from adherent cells, and collected and washed in DMEM. The resulting cells were resuspended in 1 mL microglia media, counted, and plated at 5×10^4 cells/well. To verify microglial enrichment, cells were stained with the astroglial and microglial markers GFAP and Iba1, respectively. Greater than 60% of cells stained positive for Iba1, with no cells staining for both GFAP and Iba1. Pure microglia were prepared from post-natal day 3 CX3CR1-GFP mice (Jackson Laboratories). Cortex and hippocampus were dissected and triturated in DMEM containing high glucose using a 10 mL pipette, and then with an 18 gauge needle. The homogenate was centrifuged for 3 min at 1,000 g, and then resuspended in pre-warmed DMEM containing high glucose, 10% FBS and penicillin/streptomycin (microglia media). The cell suspension was next transferred to a T75 tissue-culture flask and kept in a humidified incubator at 37° C. and 5% CO2 for 7-10 d. Microglia were isolated by shaking, collected and washed in DMEM. The resulting cells were resuspended in 1 mL microglia media, counted, and plated on tissue culture treated glass chamber slides at 5×10^4 cells/well for use in experiments.
The cytotoxicity of Aβ1-42 oligomers was tested on mixed cortical cultures at DIV 5. All antibodies, at a final concentration of 100 μg/mL, were co-incubated with Aβ1-42 oligomers for 30 min in serum-free cell culture medium at 37° C. before treatment of cells. […]

microglia = test: Confocal imaging of microglial uptake of Aβ1-42 oligomers; details: for Aβ1-42 oligomer internalization into microglia, rank order: primary cortical microglia
Protocol: Aβ1-42 oligomers are shown in red, and blue is DAPI staining of DNA to show the microglia itself (A). An apical-to-distal slice was obtained from a three-dimensional image rendered from Z-stacks. Confocal imaging was performed on mixed cortical cells labeled for Aβ (red) and stained with DAPI (blue) as described in the Example Section under Materials and Methods. Microglia were identified and scanned for the maximum fluorescence intensity through a series of confocal stacks representing intracellular locations (B), and the total area of fluorescent signal above a minimum threshold was quantified (C). Each mark on the graph represents the total area of Aβ stained within a single cell. A minimum of 20 cells were analyzed for each treatment condition. Data were compared using one-way ANOVA followed by Tukey post-hoc multiple comparison. Means (±SEM) are shown. […] Red is Iba1 staining, green is HyLite Fluor-488-labeled Aβ1 42, and blue is DAPI staining. […] Statistical analysis was done using one-way ANOVA followed by Tukey post-hoc multiple comparison.
The ability of these different monoclonal antibody backbones to internalize Aβ1-42 oligomers into microglia was then compared using confocal imaging on Aβ1-42 oligomer treated primary cortical microglia. […] To verify that microglia are indeed the cells taking up Aβ1-42 complexed to monoclonal antibodies, the study was repeated using HiLyte Fluor-488 tagged Aβ1-42 and co-stained for the microglial marker Iba1.
Cells were grown on a glass coverslips. Following treatment, cells were quickly washed with PBS and then fixed with 4% paraformaldehyde for 20 min. After thorough washes, cells were immersed in 100% methanol for 10 min at −20° C. They were then washed again and incubated in a blocking solution, PBS containing 10% normal goat serum for 1 h at room temperature. After an overnight incubation with the primary antibody, cells were washed and incubated for 2 h with the secondary antibody, then washed and mounted on glass slides using ProLong Gold antifade reagent (Invitrogen). Epifluorescence and confocal images were acquired on a LSM 700 inverted microscope from Zeiss, using a 63× lens. Fluorescence intensity was measured in cell bodies delineated by saturated epifluorescence pictures. Z-stacks were rendered into a three-dimensional image using ImageJ 1.42 (National Institutes of Health, freeware) from which an apical to distal slice containing the labeled proteins was obtained. Cells treated with HyLite Fluor-488-tagged Aβ1-42 were treated in the same way except no primary or secondary antibodies were used to label for Aβ1-42.

p38MAPK = test: Phospho-p38MAPK ELISA; details: 10 μM Aβ1-42 oligomers for 30 min, 100 μg/mL antibody
Protocol: FIG. 5 provides graphs and immunocytochemical images corresponding to the experiments described in Example 6.6. […] An IgG1 monoclonal antibody not binding to Aβ was used as control. The activity of p38MAP K was measured by a phospho-specific ELISA as described in Methods (A). The mean (±SEM) of 4 independent experiments is shown. Statistical analysis was done using one-way ANOVA followed by Tukey post-hoc multiple comparison. Activation of p38MAPK with Aβ1-42 oligomers complexed with monoclonal antibody was specific to microglia (B). Cells were treated as described above and then stained for phospho-p38MAP K (green), with Iba1 (red), and with DAPI (blue). […] Pure microglia from CX3CR1-GFP mice were used to verify microglia-specific p38 activity (C). […] A cytotoxicity assay using the MTT readout was performed after 24 h. The mean (±SEM) of 4 experiments is shown. […]
Rat cortical cultures were seeded onto poly-L-lysine coated 6-well cell-culture plates (Costar, Cambridge, Mass., USA) and used at DIV 5. […] Protein concentration was determined by the BCA assay (Pierce, Rockford, Ill., USA). For semi-quantitative measure of p38MAPK activation, a rat phospho-p38MAPK colorimetric ELISA kit was used (Cell Signaling Technology, Beverly, Mass., USA), following the manufacturer's instructions. Plates were read on a spectrophotometric microplate reader (Tecan) at a […]. […]

Row | Substance | antibody-mediated increase in MTT signal under p38MAPK inhibition ([1]; 10 μM Aβ1-42 oligomers, 100 μg/ml antibody, 1 μM SB239063, 24 h) | rescue from Aβ1-42 oligomer toxicity (MTT) ([1]; Aβ1-42 oligomer up to 5 μM, 24 h, MABT to oligomer molar ratio 1:7.5) | reversal of Aβ1-42 oligomer-mediated toxicity [1] | uptake of Aβ1-42 oligomers into microglia (microglia; mixed neuronal cultures, apparent from 30 minutes) | Aβ1-42 oligomer internalization into microglia, rank order (microglia) | Aβ1-42 oligomer-induced p38MAPK activity (p38MAPK) | microglial morphology and Iba1 staining (microglia; Aβ1-42 in combination with antibody)
1 | MABT: humanized anti-Aβ monoclonal antibody of IgG4 isotype, affinity matured and humanized form of mouse mMABT | reduced to that of MABT-IgG1-D265A | complete rescue from toxicity | full reversal of Aβ1-42 oligomer-mediated toxicity | mediated rapid uptake of Aβ1-42 oligomers into cellular profiles likely to be microglia | MABT-IgG1>MABT>MABT-IgG1-D265A | did not reduce the Aβ1-42 oligomer-induced p38MAPK activity, but rather showed a trend towards higher activity | –
2 | MABT-IgG1: same antigen binding sequences as MABT on human IgG1 wild-type backbone with full FcγR-binding capacity | – | – | full reversal of Aβ1-42 oligomer-mediated toxicity; also recorded: trended towards a smaller protective effect when compared to MABT | – | MABT-IgG1>MABT>MABT-IgG1-D265A | increased the Aβ1-42 oligomer-induced p38MAPK activity even further | more condensed nuclei and brighter Iba1 staining
